Test system: LpxC enzyme
Experiment: LpxC enzyme assay (RapidFire high-throughput mass spectrometry)
Assay type: biochemical
Summary of the method: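 0.2 nM enzyme with 1.0 μM UDP-3-O-(R-3-hydroxymyristoyl)-N-acetylglucosamine in 25 mM HEPES pH 7.3, 150 mM NaCl, 2.0 mM DTT, 0.01% BSA, 2% DMSO; 60 min at room temperature, quenched with HCl. Substrate and product quantified by RapidFire mass spectrometry; percent conversion gives percent inhibition versus DMSO control.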

[1] = concentration 0.10 (unit not given)
[2] = concentration 0.20 (unit not given)
[3] = concentration 0.39 (unit not given)
[4] = concentration 0.78 (unit not given)
[5] = concentration 1.56 (unit not given)
[6] = concentration 3.13 (unit not given)
[7] = concentration 6.25 (unit not given)
[8] = concentration 12.50 (unit not given)
[9] = concentration 25 (unit not given)
[10] = concentration 50 (unit not given)

SMILES | LpxC enzyme assay rating (% inhibition at indicated concentrations) [1] | LpxC enzyme assay rating (% inhibition at indicated concentrations) [2] | LpxC enzyme assay rating (% inhibition at indicated concentrations) [3] | LpxC enzyme assay rating (% inhibition at indicated concentrations) [4] | LpxC enzyme assay rating (% inhibition at indicated concentrations) [5] | LpxC enzyme assay rating (% inhibition at indicated concentrations) [6] | LpxC enzyme assay rating (% inhibition at indicated concentrations) [7] | LpxC enzyme assay rating (% inhibition at indicated concentrations) [8] | LpxC enzyme assay rating (% inhibition at indicated concentrations) [9] | LpxC enzyme assay rating (% inhibition at indicated concentrations) [10]
CN(C)CCCOc1ccc(NC(=O)[C@H](O)[C@@H](O)C(=O)N(C)C)cc1 [Compound 57] | B (10-30% inhibition) | C (less than 10% inhibition) | B (10-30% inhibition) | C (less than 10% inhibition) | C (less than 10% inhibition) | C (less than 10% inhibition) | C (less than 10% inhibition) | C (less than 10% inhibition) | B (10-30% inhibition) | C (less than 10% inhibition)
CN(C)C(=O)[C@H](O)[C@@H](O)C(=O)Nc1ccc(-n2cccn2)cc1 [Compound 58] | C (less than 10% inhibition) | B (10-30% inhibition) | C (less than 10% inhibition) | B (10-30% inhibition) | C (less than 10% inhibition) | B (10-30% inhibition) | B (10-30% inhibition) | B (10-30% inhibition) | C (less than 10% inhibition) | B (10-30% inhibition)
CN(C)C(=O)[C@H](O)[C@@H](O)C(=O)Nc1ccc(-c2cc[nH]n2)cc1 [Compound 59] | B (10-30% inhibition) | C (less than 10% inhibition) | B (10-30% inhibition) | C (less than 10% inhibition) | C (less than 10% inhibition) | C (less than 10% inhibition) | C (less than 10% inhibition) | C (less than 10% inhibition) | B (10-30% inhibition) | C (less than 10% inhibition)
O=C(NCCCCl)[C@H](O)[C@@H](O)C(=O)Nc1ccc(C#Cc2ccccc2)cc1 [Compound 60] | C (less than 10% inhibition) | C (less than 10% inhibition) | B (10-30% inhibition) | B (10-30% inhibition) | C (less than 10% inhibition) | B (10-30% inhibition) | B (10-30% inhibition) | B (10-30% inhibition) | C (less than 10% inhibition) | C (less than 10% inhibition)
CCCc1ccc(NC(=O)[C@H](O)[C@@H](O)C(=O)NCCCCl)cc1 [Compound 61] | C (less than 10% inhibition) | C (less than 10% inhibition) | C (less than 10% inhibition) | C (less than 10% inhibition) | C (less than 10% inhibition) | C (less than 10% inhibition) | C (less than 10% inhibition) | C (less than 10% inhibition) | B (10-30% inhibition) | B (10-30% inhibition)
O=C(NCCCCl)[C@H](O)[C@@H](O)C(=O)Nc1ccc(-n2cccn2)cc1 [Compound 62] | C (less than 10% inhibition) | C (less than 10% inhibition) | C (less than 10% inhibition) | C (less than 10% inhibition) | B (10-30% inhibition) | C (less than 10% inhibition) | B (10-30% inhibition) | B (10-30% inhibition) | B (10-30% inhibition) | C (less than 10% inhibition)
O=C(Nc1ccc(C#Cc2ccccc2)cc1)[C@H](O)[C@@H](O)C(=O)N1CCCC1 [Compound 63] | B (10-30% inhibition) | B (10-30% inhibition) | B (10-30% inhibition) | C (less than 10% inhibition) | B (10-30% inhibition) | B (10-30% inhibition) | B (10-30% inhibition) | A (greater than 30% inhibition) | A (greater than 30% inhibition) | A (greater than 30% inhibition)
O=C(Nc1ccc(-c2ccccc2)cc1)[C@H](O)[C@@H](O)C(=O)N1CCCC1 [Compound 64] | B (10-30% inhibition) | B (10-30% inhibition) | C (less than 10% inhibition) | B (10-30% inhibition) | C (less than 10% inhibition) | B (10-30% inhibition) | B (10-30% inhibition) | B (10-30% inhibition) | B (10-30% inhibition) | B (10-30% inhibition)
O=C(Nc1ccc(-c2ccc(C(F)(F)F)cc2)cc1)[C@H](O)[C@@H](O)C(=O)N1CCCC1 [Compound 65] | B (10-30% inhibition) | B (10-30% inhibition) | B (10-30% inhibition) | C (less than 10% inhibition) | B (10-30% inhibition) | B (10-30% inhibition) | B (10-30% inhibition) | B (10-30% inhibition) | B (10-30% inhibition) | B (10-30% inhibition)
CCCCc1ccc(NC(=O)[C@H](O)[C@@H](O)C(=O)N2CCCC2)cc1 [Compound 66] | C (less than 10% inhibition) | C (less than 10% inhibition) | B (10-30% inhibition) | C (less than 10% inhibition) | B (10-30% inhibition) | B (10-30% inhibition) | B (10-30% inhibition) | B (10-30% inhibition) | A (greater than 30% inhibition) | B (10-30% inhibition)
CCCc1ccc(NC(=O)[C@H](O)[C@@H](O)C(=O)N2CCCC2)cc1 [Compound 67] | B (10-30% inhibition) | B (10-30% inhibition) | B (10-30% inhibition) | C (less than 10% inhibition) | C (less than 10% inhibition) | C (less than 10% inhibition) | B (10-30% inhibition) | C (less than 10% inhibition) | B (10-30% inhibition) | B (10-30% inhibition)
CCC(C)c1ccc(NC(=O)[C@H](O)[C@@H](O)C(=O)N2CCCC2)cc1 (stereo partly drawn) [Compound 68] | C (less than 10% inhibition) | C (less than 10% inhibition) | C (less than 10% inhibition) | C (less than 10% inhibition) | C (less than 10% inhibition) | B (10-30% inhibition) | B (10-30% inhibition) | C (less than 10% inhibition) | B (10-30% inhibition) | B (10-30% inhibition)

— patent US7553864B2, “Compounds for the treatment of inflammatory disorders and microbial diseases” (Schering Corporation, priority 2005, dated 2009)
